{"source": "patent US8058437B2", "about": "“(Pyrroloquinoxalinyl) pyrazinecarbohydrazide-oxalic acid co-crystal for treatment of cancer and other diseases” (Novelix Pharmaceuticals, Inc., priority 2008, dated 2011)", "key": {"[1]": {"experiment": "Pharmacokinetic experiments in rats (IV, oral suspension, oral solution)", "format": "in vivo", "conditions": "rat; for bioavailability: versus mean IV AUCINF, adjusted for dose", "description": "The oral suspension formulation was prepared by suspending the test article in 5% PEG-200/95% of a 0.5% solution of methylcellulose. The concentration of the test article was such that a dosing volume of 10 mL/kg delivered the intended dose level. The oral solution formulations of NVX-144 and NVX-412 were prepared by dissolving the test article in 10% by volume dimethyl acetamide, followed by 60% by volume PEG-400, and then adding slowly a solution of 30% Captisol® in 50 mM lactic acid to provide the remaining 30% of volume. The concentration of the test article was such that a dosing volume of 10 mL/kg delivered the intended dose level. The IV formulation of NVX-412 was prepared by dissolving the test article in 10% by volume dimethyl acetamide, followed by 10% by volume PEG-400, and then adding slowly a solution of 10% Captisol® in 50 mM lactic acid to provide the remaining 80% of volume. The concentration of the test articles was such that a dosing volume of 2.5 mL/kg delivered the intended dose level. The doses administered were based on the body weight of each animal taken shortly before dosing. The formulations were used immediately after preparation.\nA total of 15 rats were assigned to the study. Five groups of three male rats each comprised the study. Each group was treated once by oral gavage or intravenous injection via the tail vein as specified in Table 3 below.\nThe animals were fasted overnight prior to dosing and the feed returned approximately 2 hours post-dosing. The dose for each animal was based on the most recent body weight. Oral doses were administered by gavage. Animals received 10 mL/kg per single oral dose. Intravenous doses were administered by tail vein injection. The dose for each animal was based on the most recent body weight. Animals were dosed at 2.5 mL/kg per single intravenous dose.\nBlood was collected from the animals in Groups 1 through 5 for pharmacokinetic analysis. Approximately 0.3 mL of blood was collected in potassium EDTA tubes via the orbital plexus at four time points (30 minutes, 1 hour, 4 hours, and 8 hours post-dose) from each rat treated by the oral route, and the blood samples were processed to prepare plasma. Blood was collected at four time points (5 minutes, 30 minutes, 1 hour, and 2 hours post-dose) from each rat treated by the intravenous route, and the blood samples were processed to prepare plasma. Animals were terminated (without necropsy) following their final sample collection.\nThe whole blood samples were centrifuged (˜1500×g) for a minimum of 10 minutes in a refrigerated centrifuge (set at ˜5° C.). Plasma was prepared and transferred within 30 minutes of blood collection/centrifugation to appropriately labeled tubes. The tubes were then frozen and stored in the dark at ≦−70° C. until analysis. The plasma samples were analyzed by LC-MS/MS to determine the plasma concentrations of NVX-144 and NVX-412. Pharmacokinetic analysis of the plasma concentration data was conducted using non-compartmental analysis with WinNonlin Version 4.1."}, "[2]": {"experiment": "Salt formation experiments / physical characteristics of solid forms", "format": "physicochemical", "conditions": "suitable for pharmaceutical formulation", "description": "Thus, a series of experiments was conducted to assess the preparation of NVX-144 salts of acids other than hydrochloric acid as possible novel compounds better suited to pharmaceutical preparations. […] As expected, NVX-144 base readily formed salts with strong organic acids.\nAlthough oxalic acid co-crystals are rare, Trask et al. have reported a co-crystal of caffeine with oxalic acid (see Trask et al., “Pharmaceutical Cocrystallization: Engineering a Remedy for Caffeine Hydration,” Crystal Growth & Design, 5, 1013-21 (2005)).\nThus NVX-144 would not be expected to form a salt with oxalic acid, a relatively strong dicarboxylic acid."}, "[3]": {"conditions": "male, plasma, po, 20 mg/kg, Group 5, PO-Solution 20 mg/kg, individual animals"}, "[4]": {"conditions": "Group 3, PO-Suspension 20 mg/kg, Mean N=2"}, "[5]": {"conditions": "Group 3, PO-Suspension 20 mg/kg, individual animals"}, "[6]": {"conditions": "Group 5, PO-Solution 20 mg/kg, Mean N=3"}, "[7]": {"conditions": "Group 5, PO-Solution 20 mg/kg, individual animals"}, "[8]": {"conditions": "IV 5 mg/kg, individual animals, 5 mg/kg"}}, "note": "Where “and” joins values, the source holds several entries; their conditions need not be identical. Identical values can stand only once. Entries after “also recorded” stand apart in the source; their conditions may differ. Like-named read-outs stand apart in the source and are kept apart here."}
{"compound": "O=C(NNc1nc2cc(F)ccc2n2cccc12)c1cnccn1.O=C(O)C(=O)O", "note": "[NVX-412, N′-(7-fluoropyrrolo[1,2a]quinoxalin-4-yl)pyrazine-2-carbohydrazide oxalic acid co-crystal]", "values": [{"measurement": "AUC", "setting": "[1]; [3]", "result": 2390, "unit": "ng·h/mL"}, {"measurement": "AUC(0-inf)", "setting": "[1]; [3]", "result": 2400, "unit": "ng·h/mL"}, {"measurement": "Cmax", "setting": "[1]; male, plasma, po, 20 mg/kg, Group 5, PO-Solution 20 mg/kg, individual animals, read-out: Cmax", "result": 732, "unit": "ng/mL"}, {"measurement": "half-life", "setting": "[1]; male, plasma, po, 20 mg/kg, Group 5, PO-Solution 20 mg/kg, individual animals, read-out: T ½ (converted)", "result": 1.18, "unit": "h"}, {"measurement": "Tmax", "setting": "[1]; male, plasma, po, 20 mg/kg, Group 5, PO-Solution 20 mg/kg, individual animals, read-out: Tmax", "result": "0.5 to 1", "unit": "h"}, {"measurement": "bioavailability", "setting": "[1]; male, plasma, po, 20 mg/kg, Group 5, PO-Solution 20 mg/kg, individual animals, read-out: Bioavailability", "result": 45.7, "unit": "%"}, {"measurement": "plasma concentration", "setting": "[1]; Group 3, PO-Suspension 20 mg/kg, 0.5 hr, individual animals", "result": "386.99 ng/mL and 573.34 ng/mL"}, {"measurement": "plasma concentration", "setting": "[1]; Group 3, PO-Suspension 20 mg/kg, 1 hr, individual animals", "result": "464.23 ng/mL and 584.12 ng/mL"}, {"measurement": "plasma concentration", "setting": "[1]; Group 3, PO-Suspension 20 mg/kg, 4 hr, individual animals", "result": "181.80 ng/mL and 249.34 ng/mL"}, {"measurement": "plasma concentration", "setting": "[1]; Group 3, PO-Suspension 20 mg/kg, 8 hr, individual animals", "result": "13.07 ng/mL and BLQ (BLQ = Below the Limit of Quantitation <5 ng/mL) and 5.48 ng/mL"}, {"measurement": "AUC % Extrap", "setting": "[1]; [4]", "result": 0.68, "unit": "%"}, {"measurement": "AUCINF", "setting": "[1]; [4]", "result": 2306.62, "unit": "ng·h/mL"}, {"measurement": "T ½", "setting": "[1]; [4]", "result": 1.15, "unit": "h"}, {"measurement": "Cmax", "setting": "[1]; Group 3, PO-Suspension 20 mg/kg, Mean N=3", "result": 524.61, "unit": "ng/mL"}, {"measurement": "AUC % Extrap", "setting": "[1]; [5]", "result": "1.00% and 0.36%"}, {"measurement": "AUCINF", "setting": "[1]; [5]", "result": 2200.54, "unit": "ng·h/mL"}, {"measurement": "AUCall", "setting": "[1]; [5]", "result": "1642.21 ng·h/mL and 2192.52 ng·h/mL"}, {"measurement": "Cmax", "setting": "[1]; [5]", "result": "464.23 ng/mL and 584.12 ng/mL"}, {"measurement": "T ½", "setting": "[1]; [5]", "result": 1.02, "unit": "h"}, {"measurement": "bioavailability", "setting": "[1]; [5]", "result": 41.9, "unit": "%"}, {"measurement": "plasma concentration", "setting": "[1]; Group 5, PO-Solution 20 mg/kg, 0.5 hr, individual animals", "result": "635.82 ng/mL and 509.37 ng/mL"}, {"measurement": "plasma concentration", "setting": "[1]; Group 5, PO-Solution 20 mg/kg, 1 hr, individual animals", "result": "686.88 ng/mL and 489.07 ng/mL"}, {"measurement": "plasma concentration", "setting": "[1]; Group 5, PO-Solution 20 mg/kg, 4 hr, individual animals", "result": "171.97 ng/mL and 298.24 ng/mL"}, {"measurement": "plasma concentration", "setting": "[1]; Group 5, PO-Solution 20 mg/kg, 8 hr, individual animals", "result": "8.53 ng/mL and 5.14 ng/mL and 34.89 ng/mL"}, {"measurement": "AUC % Extrap", "setting": "[1]; [6]", "result": 1.73, "unit": "%"}, {"measurement": "Cmax", "setting": "[1]; [6]", "result": 642.71, "unit": "ng/mL"}, {"measurement": "T ½", "setting": "[1]; [6]", "result": 1.37, "unit": "h"}, {"measurement": "AUC % Extrap", "setting": "[1]; [7]", "result": "0.61% and 0.34% and 4.24%"}, {"measurement": "AUCINF", "setting": "[1]; [7]", "result": "2139.39 ng·h/mL and 2322.68 ng·h/mL"}, {"measurement": "AUCall", "setting": "[1]; [7]", "result": "2132.13 ng·h/mL and 2224.16 ng·h/mL"}, {"measurement": "Cmax", "setting": "[1]; [7]", "result": "686.89 ng/mL and 509.37 ng/mL"}, {"measurement": "T ½", "setting": "[1]; [7]", "result": "0.98 h and 1.96 h"}, {"measurement": "Tmax", "setting": "[1]; [7]", "result": 0.5, "unit": "h"}, {"measurement": "bioavailability", "setting": "[1]; [7]", "result": "40.7% and 44.2%"}, {"measurement": "plasma concentration", "setting": "[1]; IV 5 mg/kg, 0.083 h, individual animals, 5 mg/kg", "result": "1716.72 ng/mL and 2001.77 ng/mL"}, {"measurement": "plasma concentration", "setting": "[1]; IV 5 mg/kg, 0.5 h, individual animals, 5 mg/kg", "result": "481.82 ng/mL and 461.19 ng/mL"}, {"measurement": "plasma concentration", "setting": "[1]; IV 5 mg/kg, 1 h, individual animals, 5 mg/kg", "result": "278.84 ng/mL and 253.02 ng/mL"}, {"measurement": "plasma concentration", "setting": "[1]; IV 5 mg/kg, 2 h, individual animals, 5 mg/kg", "result": "185.19 ng/mL and 143.93 ng/mL"}, {"measurement": "AUC % Extrap", "setting": "[1]; IV 5 mg/kg, Mean of 3", "result": 18.74, "unit": "%"}, {"measurement": "AUCINF", "setting": "[1]; IV 5 mg/kg, Mean of 3, 5 mg/kg", "result": 1314.5, "unit": "ng·h/mL"}, {"measurement": "Cl", "setting": "[1]; IV 5 mg/kg, Mean of 3, 5 mg/kg", "result": "63.43 mL/min/kg and 63.4273 mL/min/kg"}, {"measurement": "Cmax", "setting": "[1]; IV 5 mg/kg, Mean of 3, 5 mg/kg", "result": 1842.5, "unit": "ng/mL"}, {"measurement": "T ½", "setting": "[1]; IV 5 mg/kg, Mean of 3, 5 mg/kg", "result": 1.03, "unit": "h"}, {"measurement": "Vss", "setting": "[1]; IV 5 mg/kg, Mean of 3, 5 mg/kg", "result": 3.98512, "unit": "L/kg"}, {"measurement": "AUC % Extrap", "setting": "[1]; [8]", "result": "18.44% and 22.68% and 15.1%"}, {"measurement": "AUCINF", "setting": "[1]; [8]", "result": "1349.72 ng·h/mL and 1277.84 ng·h/mL"}, {"measurement": "AUCall", "setting": "[1]; [8]", "result": "1043.56 ng·h/mL and 1084.89 ng·h/mL"}, {"measurement": "Cl", "setting": "[1]; [8]", "result": "61.7413 mL/min/kg and 65.2145 mL/min/kg"}, {"measurement": "Cmax", "setting": "[1]; [8]", "result": "1716.7 ng/mL and 2001.8 ng/mL"}, {"measurement": "T ½", "setting": "[1]; [8]", "result": "1.15 h and 0.93 h"}, {"measurement": "Vss", "setting": "[1]; [8]", "result": "4.55297 L/kg and 3.44635 L/kg"}, {"measurement": "oral absorption", "setting": "[1]; administered as a solution or suspension", "result": "moderate"}, {"measurement": "difference in oral absorption between NVX-412 and NVX-144", "setting": "[1]; dosed as a solution", "result": "no significant difference"}, {"measurement": "oral absorption / bioavailability of NVX-412 over NVX-144 free base", "setting": "[1]; dosed as a suspension", "result": "more bioavailable; also recorded: slight improvement"}, {"measurement": "hydrate formation / stability", "setting": "[2]", "result": "forms stable mono- and di-hydrates"}]}
